Measured values: patent US6342500B1, “Post-Amadori inhibitors of Advanced Glycation reactions” (Kansas University Medical Center, priority 1999, dated 2002)
Read-outs that look alike come from different tables or passages of the source.

Columns and labels:
[1] = test system: conversion of Amadori compounds to post Amadori advanced glycation endproducts (bovine serum albumin glycated by ribose); assay: Interrupted glycation: post-Amadori AGE formation of bovine serum albumin by ribose; format: biochemical
Experimental: FIG. 2 is graph depicting the effect of dipyridoxylamine (BST-4500) on post-Amadori AGE formation during interrupted glycation of bovine serum albumin by ribose. Modification with ribose was done at 37° C. in 0.2 M phosphate buffer of pH 7.5 containing 0.02% sodium azide. The solutions were kept in capped tubes and opened only to remove timed aliquots that were immediately frozen for later carrying out the various analyses. “Interrupted glycation” experiments were carried out by first incubating protein with the ribose at 37° C. for 8 or 24 h, followed by immediate and extensive dialysis against frequent cold buffer changes at 4° C. The samples were then reincubated by quickly warming to 37° C. in the absence of external ribose. Aliquots were taken and frozen at various intervals for later analysis.
The interrupted glycation method for following post-Amadori kinetics of AGE formation allows for the rapid quantitative study of “late” stages of the glycation reaction. Importantly, this method allows for inhibition studies that are free of pathways of AGE formation which arise from glycoxidative products of free sugar or Schiff base (Namiki pathway).
In comparison, in a similar experiment, pyridoxamine inhibited the conversion of Amadori compounds to post Amadori advanced glycation endproducts with a half-maximal inhibitory concentration of approximately 3 mM. Thus, the post-Amadori-inhibitory activity of dipyridoxylaminc is approximately 750-fold greater than that of pyridoxamine.

[2] = test system: normal human epidermal keratinocytes; assay: Neutral red uptake bioassay using normal human epidermal keratinocytes; format: cell-based; conditions: for HuLC50: preliminarily estimated concentration for half-maximal toxicity, neutral red uptake, normal human epidermal keratinocytes
Experimental: A neutral red uptake bioassay using normal human epidermal keratinocytes was then conducted to preliminarily estimate the toxicity (HuLC50) of dipyridoxylamine relative to pyridoxamine. The bioassay was conducted according to standard protocols. (Borenfreund et al., J. Tissue Culture Methods 9:7-9, 1984; Heimann, et al., Cancer Res. 43:4856-4862, 1983; Shopsis et al., in “Alternative Methods in Toxicology,” Vol. 6, AM Goldberg (Ed), Mary Ann Liebert, Inc., N.Y., p. 253-263, 1988) The preliminarily estimated concentration for half-maximal toxicity was then divided by the half maximal inhibition of post-Amadori AGE formation to derive a therapeutic index ratio.

[3] = half maximal inhibition of post-Amadori AGE formation, read-out: IC50

## Cc1ncc(CO)c(CNCc2c(CO)cnc(C)c2O)c1O [Dipyridoxylamine]
[1]; [3]
  IC50: 4 µM
[1]; interrupted glycation of BSA by ribose, 37° C., 0.2 M phosphate buffer pH 7.5, read-out: half-maximal inhibitory concentration for inhibiting the conversion of Amadori compounds to post Amadori advanced glycation endproducts
  IC50: ~4 µM
[1]; ratio of half-maximal inhibitory concentrations, versus pyridoxamine
  post-Amadori-inhibitory activity relative to pyridoxamine: approximately 750 fold
[2]; neutral red uptake bioassay, in words
  toxicity relative to pyridoxamine: mildly more toxic than pyridoxamine
[2]
  HuLC50: 1.8 mM

## Cc1ncc(CO)c(CN)c1O [Pyridoxamine, pyridoxamine, reference compound]
[1]; [3]
  IC50: 3000 µM
[1]; in a similar experiment (interrupted glycation), read-out: half-maximal inhibitory concentration for inhibiting the conversion of Amadori compounds to post Amadori advanced glycation endproducts
  IC50: ~3000 µM
[2]
  HuLC50: 16.7 mM
